Reference: PubChem BioAssay (NCI)
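Protocol summary: plate cells (96-well), add compound at 5 concentrations, incubate 48 h, interpolate endpoints linearly. GI50 marks 50% less growth. Definition used: TGI = concentration required for complete inhibition of growth.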

Assays:
Assay in all cases: NCI-60 cell line screen, 48 h
OVCAR-3 ovarian = test system: OVCAR-3 ovarian
NCI-H23 lung = test system: NCI-H23 lung
MCF7 breast = test system: MCF7 breast
EKVX NSCLC = test system: EKVX NSCLC
RXF 393 renal = test system: RXF 393 renal
M14 melanoma = test system: M14 melanoma
SK-MEL-2 melanoma = test system: SK-MEL-2 melanoma
COLO 205 colon = test system: COLO 205 colon
HCC-2998 colon = test system: HCC-2998 colon
UACC-257 melanoma = test system: UACC-257 melanoma
HOP-62 NSCLC = test system: HOP-62 NSCLC
SK-OV-3 ovarian = test system: SK-OV-3 ovarian
SNB-75 CNS = test system: SNB-75 CNS
SF-295 CNS = test system: SF-295 CNS
HCT-15 colon = test system: HCT-15 colon
HCT-116 colon = test system: HCT-116 colon
SK-MEL-28 melanoma = test system: SK-MEL-28 melanoma
SR leukemia = test system: SR leukemia
NCI-H522 lung = test system: NCI-H522 lung

Compound	TGI (OVCAR-3 ovarian) [µM]	TGI (NCI-H23 lung) [µM]	TGI (MCF7 breast) [µM]	TGI (EKVX NSCLC) [µM]	TGI (RXF 393 renal) [µM]	TGI (M14 melanoma) [µM]	TGI (SK-MEL-2 melanoma) [µM]	TGI (COLO 205 colon) [µM]	TGI (HCC-2998 colon) [µM]	TGI (UACC-257 melanoma) [µM]	TGI (HOP-62 NSCLC) [µM]	TGI (SK-OV-3 ovarian) [µM]	TGI (SNB-75 CNS) [µM]	TGI (SF-295 CNS) [µM]	TGI (HCT-15 colon) [µM]	TGI (HCT-116 colon) [µM]	TGI (SK-MEL-28 melanoma) [µM]	TGI (SR leukemia) [µM]	TGI (NCI-H522 lung) [µM]	GI50 (MCF7 breast) [µM]
CCOP(=O)(OCC)C(c1ccc(F)cc1)N(C(=O)NC(F)(F)F)c1cccc(C(F)(F)F)c1 (stereo unspecified)	> 100	> 100	> 100	> 100	> 100	> 100	> 100	> 100	> 100	> 100	> 100	> 100	> 100	> 100	> 100	> 100	> 100	> 100	> 100	–
CCOC(=O)Cn1c(=O)ccn(COCCO)c1=O	> 100	> 100	> 100	> 100	> 100	> 100	> 100	> 100	> 100	> 100	> 100	–	> 100	–	> 100	–	> 100	–	> 100	–
CCOC(=O)CNC(=O)N(CC)C12CC3CC(CC(C3)C1)C2	287	419	444	358	388	–	205	227	402	322	266	216	361	304	228	297	560	–	323	–
CC1CCCCNC1=S (stereo unspecified)	> 10	> 10	> 10	> 10	> 10	> 10	> 10	–	–	> 10	> 10	> 10	> 10	> 10	> 10	–	> 10	> 10	–	–
COCCCNc1nc(N)c(C#N)c(C#N)c1C#N	> 10	> 10	> 10	> 10	> 10	> 10	> 10	> 10	> 10	–	> 10	> 10	> 10	> 10	> 10	> 10	> 10	> 10	> 10	–
CCOC(=O)c1ccc(N[C@@H]2c3cc4c(cc3C(c3cc(OC)c(O)c(OC)c3)[C@H]3C(=O)OCC32)OCO4)cc1O (stereo partly specified)	8.75	4.26	> 79.3	> 22.6	6.77	–	1.83	7.69	3.97	> 100	1.56	2.2	> 23.2	2.96	2.54	8.26	42	–	2.07	–
C[C@@H]1Nc2cc(NC(=O)OCCF)nc(N)c2N=C1c1ccccc1	< 0.0001	> 100	> 100	–	> 100	–	–	< 0.0001	–	> 100	–	–	> 100	20.1	> 100	> 100	> 100	–	0.509	< 0.0001
Clc1ccc(C[P+](c2ccccc2)(c2ccccc2)c2ccccc2)c(Cl)c1	13.8	13	–	31.4	8.67	14.3	7.71	2.44	15.1	7.64	27.9	24.4	7.54	12.3	> 100	10.3	20.1	8.13	7.18	–
COc1ccc(S(=O)(=O)c2ccccc2[N+](=O)[O-])cc1	> 100	> 100	–	> 100	> 100	> 100	> 100	> 100	> 100	> 100	> 100	> 100	> 100	> 100	> 100	> 100	> 100	> 100	–	–
CC1CC2=C(S(=O)(=O)c3ccccc3)CC(S(=O)(=O)c3ccccc3)(S(=O)(=O)c3ccccc3)CC21 (stereo unspecified)	> 100	> 100	–	> 100	> 100	> 100	> 100	> 100	> 100	> 100	> 100	> 100	> 100	> 100	> 100	> 100	> 100	> 100	–	–
